Experimental data from patent US20130131075A1, “NEW COMPOUNDS” (Boehringer Ingelheim International GmbH, priority 2009, published 2013).
pKi: −log10 of the molar value.

biological target: T1, cynomolgus BK1-receptor (Macaca fascicularis, UniProt Q3BCU0); assay: cynoBK1-receptor binding assay; conditions: CHO cells expressing cynomolgus BK1-receptor, radioligand kallidine (DesArg10,Leu9)
T1 construct: expressed in transfected cells; host or cells: CHO cells (homogenate)
T1 sequence (Q3BCU0 1-352): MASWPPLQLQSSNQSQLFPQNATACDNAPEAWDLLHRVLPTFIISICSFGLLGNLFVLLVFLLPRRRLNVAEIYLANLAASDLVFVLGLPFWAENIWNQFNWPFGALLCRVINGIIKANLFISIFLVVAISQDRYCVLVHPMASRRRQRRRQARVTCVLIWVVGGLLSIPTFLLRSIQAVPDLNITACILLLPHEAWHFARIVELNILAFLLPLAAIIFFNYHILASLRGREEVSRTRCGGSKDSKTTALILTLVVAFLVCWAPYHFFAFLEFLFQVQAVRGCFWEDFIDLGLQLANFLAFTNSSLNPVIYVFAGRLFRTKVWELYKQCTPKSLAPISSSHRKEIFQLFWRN
Experimental: Description of the Method of Binding the cynoBK1-Receptor
CHO cells that express the cynomolgus BK1-receptor are cultivated in “HAM'S F-12 Medium”. The medium is removed from confluent cultures, the cells are washed with PBS buffer, scraped off or detached using Versene and isolated by centrifuging. Then the cells are homogenised in suspension, the homogenate is centrifuged and resuspended. After the protein content has been determined 200 μl of the homogenate (50 to 250 μg protein/assay) are incubated for 60-180 minutes at ambient temperature with 0.5 to 5.0 nM kallidine (DesArg10,Leu9), [3,4-Prolyl-3,43H(N)] and increasing concentrations of the test substance in a total volume of 250 μl. The incubation is stopped by rapid filtration through GF/B glass fibre filters that have been pre-treated with polyethyleneimine (0.3%). The radioactivity bound to the protein is measured with a TopCount NXT. The radioactivity bound in the presence of 1.0 μM kallidine (DesArg10) is defined as non-specific binding. The concentration binding curve may be analysed using computer-aided non-linear curve fitting to determine the corresponding Ki value for the test substance.
Test results of the cynoBK1-receptor binding assay: […]

Compound | pKi
CNc1ncc(C(=O)N[C@@]2(C(=O)NCc3ccc(Nc4ccc(Cl)cc4C(F)(F)F)cc3)CCOC2)cn1 [(323)] | 7.16
O=C(NC1(C(=O)NCc2ccc(Nc3ccc(Cl)cc3C(F)(F)F)cn2)CC1)c1ccc2[nH]cnc2c1 [(266)] | 7.11
Nc1cncc(C(=O)NC2(C(=O)NCc3ncc(Nc4ccc(F)cc4C(F)(F)F)cc3F)CC2)c1 [(152)] | 8.49
N#Cc1cc(Cl)ccc1Nc1ccc(CNC(=O)C2(NC(=O)c3cncnc3)CC2)cc1 [(162)] | 7.77
CCNc1ncc(C(=O)NC2(C(=O)NCc3ccc(Nc4ccc(F)cc4C(F)(F)F)cn3)CC2)cn1 [(247)] | 8.41
O=C(NC1(C(=O)NCc2ccc(Nc3ccc(Cl)cc3C(F)(F)F)cn2)CC1)c1ccc(O)nc1 [(239)] | 6.74
O=C(NC1(C(=O)NCc2ccc(Nc3ccc(Br)cc3C(F)(F)F)cn2)CC1)c1ccc(O)nc1 [(234)] | 6.98
O=C(N[C@@]1(C(=O)NCc2ccc(Nc3ccc(Cl)cc3C(F)(F)F)cc2)CCOC1)c1cnc2[nH]ccc2c1 [(388)] | 6.41
CCCNc1ccc(C(=O)NC2(C(=O)NCc3ccc(Nc4ccc(Br)cc4C(F)(F)F)cn3)CC2)cn1 [(335)] | 7.55
O=C(Cc1cncnc1)NC1(C(=O)NCc2ccc(Nc3ccccc3C(F)(F)F)cc2)CC1 [(34)] | < 6.30
O=C(N[C@@]1(C(=O)NCc2ccc(Nc3ccccc3C(F)(F)F)cc2)CCOC1)c1ccc(O)nc1 [(98)] | 6.38
Nc1cncc(C(=O)NC2(C(=O)NCc3ccc(Nc4ccc(Cl)cc4C(F)(F)F)cn3)CC2)c1 [(217)] | 7.92
O=C(NC1(C(=O)NCc2ncc(Nc3c(F)cccc3C(F)(F)F)cc2F)CC1)c1ccnnc1 [(128)] | 7.08
CCOc1ccc(Nc2ccc(CNC(=O)C3(NC(=O)c4cncnc4)CC3)cc2)c(C(F)(F)F)c1 [(117)] | 8.55
Cc1ncc(C(=O)NC2(C(=O)NCc3ccc(Nc4ccc(F)cc4C#N)cc3)CC2)cn1 [(181)] | 7.72
O=C(NC1(C(=O)NCc2ccc(Nc3ccc(Br)cc3C(F)(F)F)cn2)CC1)c1cncc(O)c1 [(141)] | 8.12
Nc1cncc(C(=O)N[C@@]2(C(=O)NCc3ccc(Nc4ccccc4C(F)(F)F)cc3)CCOC2)c1 [(105)] | 7.70
Cn1cc(C(=O)NC2(C(=O)NCc3ccc(Nc4ccc(Cl)cc4C(F)(F)F)cn3)CC2)cn1 [(373)] | 7.02
Cc1ncc(C(=O)NC2(C(=O)NCc3ccc(Nc4ccc(Br)cc4C(F)(F)F)cn3)CC2)cn1 [(139)] | 8.55
O=C(N[C@@]1(C(=O)NCc2ncc(Nc3ccc(F)cc3C(F)(F)F)cc2F)CCOC1)c1cncnc1 [(153)] | 8.01
Nc1ccc(C(=O)NC2(C(=O)NCc3ccc(Nc4ccc(Br)cc4C(F)(F)F)cn3)CC2)cn1 [(173)] | 8.57
N#Cc1cc(F)ccc1Nc1ccc(CNC(=O)C2(NC(=O)c3cncnc3)CC2)cc1 [(36)] | 7.68

Compound | pKi
N#Cc1ccc(C(=O)NC2(C(=O)NCc3ccc(Nc4ccc(F)cc4C(F)(F)F)cn3)CC2)cn1 [(256)] | 7.14
COc1cc(C(=O)NC2(C(=O)NCc3ccc(Nc4ccc(Cl)cc4C(F)(F)F)cn3)CC2)on1 [(356)] | 7.66
O=C(N[C@@]1(C(=O)NCc2ccc(Nc3ccccc3C(F)(F)F)cc2)CCOC1)c1ccnc(O)c1 [(86)] | 7.00
O=C(NC1(C(=O)NCc2ccc(Nc3ccc(F)cc3C(F)(F)F)cn2)CC1)c1cnc2[nH]ccc2c1 [(384)] | 7.68
Nc1cncc(C(=O)N[C@@]2(C(=O)NCc3ncc(Nc4c(F)cccc4C(F)(F)F)cc3F)CCOC2)c1 [(154)] | 7.05
N#Cc1ccc(F)cc1Nc1ccc(CNC(=O)C2(NC(=O)c3cncnc3)CC2)cc1 [(114)] | < 6.30
O=C(NC1(C(=O)NCc2ccc(Nc3ccc(F)cc3C(F)(F)F)cc2)CC1)c1ccno1 [(31)] | 7.89
O=C(N[C@@]1(C(=O)NCc2ccc(Nc3ccccc3C(F)(F)F)cc2)CCOC1)c1cccc(O)c1 [(97)] | 6.88
CC(NC(=O)C1(NC(=O)c2cncnc2)CC1)c1ccc(Nc2ccccc2C(F)(F)F)cn1 (stereo not drawn) [(40)] | 8.54
COc1cncc(C(=O)N[C@@]2(C(=O)NCc3ccc(Nc4ccc(F)cc4C(F)(F)F)cc3)CCOC2)c1 [(381)] | 7.03
Cc1ncc(C(=O)NC2(C(=O)NCc3ncc(Nc4ccc(F)cc4C(F)(F)F)cc3F)CC2)cn1 [(298)] | 9.15
O=C(NC1(C(=O)NCc2ccc(Nc3ccc(F)cc3C(F)(F)F)cn2)CC1)c1cncc(O)c1 [(243)] | 7.55
O=C(NC1(C(=O)NCc2ncc(Nc3c(F)cccc3C(F)(F)F)cc2F)CC1)c1ccnc(O)c1 [(130)] | 7.00
Cc1ncc(C(=O)N[C@@]2(C(=O)NCc3ncc(Nc4ccc(F)cc4C(F)(F)F)cc3F)CCOC2)cn1 [(267)] | 8.26
CC(NC(=O)C1(NC(=O)c2cncnc2)CC1)c1ncc(Nc2c(F)cccc2C(F)(F)F)cc1F (stereo not drawn) [(121)] | 8.70
CCNc1ncc(C(=O)N[C@@]2(C(=O)NCc3ccc(Nc4ccc(F)cc4C(F)(F)F)cc3)CCOC2)cn1 [(328)] | 7.48
O=C(CC(F)(F)F)N[C@@]1(C(=O)NCc2ncc(Nc3c(F)cccc3C(F)(F)F)cc2Cl)CCOC1 [(261)] | 6.34
O=C(NC1(C(=O)NCc2ccc(Nc3ccc(F)cc3C(F)(F)F)cn2)CC1)c1cnc2[nH]cnc2c1 [(143)] | 7.92
COc1cncc(C(=O)NC2(C(=O)NCc3ccc(Nc4ccc(Br)cc4C(F)(F)F)cn3)CC2)c1 [(316)] | 7.24
CNc1ncc(C(=O)N[C@@]2(C(=O)NCc3ncc(Nc4ccc(F)cc4C(F)(F)F)cc3Cl)CCOC2)cn1 [(224)] | 8.20
Cc1ncc(C(=O)NC2(C(=O)NCc3ccc(Nc4ccc(Cl)cc4C(F)(F)F)cn3)CC2)cn1 [(147)] | 8.36
Nc1cncc(C(=O)N[C@@]2(C(=O)NCc3ccc(Nc4ccc(Cl)cc4C(F)(F)F)cc3)CCOC2)c1 [(321)] | 7.24

same assay, conditions: at 10 μgmol/L; CHO cells expressing cynomolgus BK1-receptor, radioligand kallidine (DesArg10,Leu9)

Compound | inhibition at 10 µM
COc1cc(OC)cc(C(=O)N[C@@]2(C(=O)NCc3ccc(Nc4ccccc4C(F)(F)F)cc3)CCOC2)c1 [(103)] | 87%
Nc1cncc(C(=O)NC2(C(=O)NCc3ncc(Nc4ccc(F)cc4C(F)(F)F)cc3F)CC2)c1 [(152)] | 105%
Cc1ccc(C(=O)N[C@@]2(C(=O)NCc3ccc(Nc4ccccc4C(F)(F)F)cc3)CCOC2)cn1 [(58)] | 109%
N#Cc1cc(Cl)ccc1Nc1ccc(CNC(=O)C2(NC(=O)c3cncnc3)CC2)cc1 [(162)] | 104%
Cc1ccccc1N(C)c1ccc(CNC(=O)C2(NC(=O)c3cncnc3)CC2)cc1 [(113)] | 7%
COc1ccc(N(C)c2ccc(CNC(=O)C3(NC(=O)c4cncnc4)CC3)cc2)cc1 [(112)] | 45%
O=C(Cc1cncnc1)NC1(C(=O)NCc2ccc(Nc3ccccc3C(F)(F)F)cc2)CC1 [(34)] | 94%
O=C(N[C@@]1(C(=O)NCc2ccc(Nc3ccccc3C(F)(F)F)cc2)CCOC1)c1ccc(O)nc1 [(98)] | 103%
O=C(NC1(C(=O)NCc2ncc(Nc3c(F)cccc3C(F)(F)F)cc2F)CC1)c1ccnnc1 [(128)] | 103%
COCC(=O)NC1(C(=O)NCc2ccc(Nc3ccccc3C(F)(F)F)cc2)CC1 [(14)] | 84%
CCOc1ccc(Nc2ccc(CNC(=O)C3(NC(=O)c4cncnc4)CC3)cc2)c(C(F)(F)F)c1 [(117)] | 111%
O=C(NC1(C(=O)NCc2ccc(Nc3ccccc3C(F)(F)F)cn2)CC[S+]([O-])C1)c1cncnc1 (stereo not drawn) [(194)] | 95%
Cc1ncc(C(=O)NC2(C(=O)NCc3ccc(Nc4ccc(F)cc4C#N)cc3)CC2)cn1 [(181)] | 99%
O=C(NC1(C(=O)NCc2ccc(Nc3ccc(Br)cc3C(F)(F)F)cn2)CC1)c1cncc(O)c1 [(141)] | 100%
Nc1cncc(C(=O)N[C@@]2(C(=O)NCc3ccc(Nc4ccccc4C(F)(F)F)cc3)CCOC2)c1 [(105)] | 113%
O=C(NC1(C(=O)NCc2ccc(Nc3ccccc3)cc2)CC1)c1cncnc1 [(3)] | 65%
Cc1ncc(C(=O)NC2(C(=O)NCc3ccc(Nc4ccc(Br)cc4C(F)(F)F)cn3)CC2)cn1 [(139)] | 107%
O=C(N[C@@]1(C(=O)NCc2ncc(Nc3ccc(F)cc3C(F)(F)F)cc2F)CCOC1)c1cncnc1 [(153)] | 106%
Nc1ccc(C(=O)NC2(C(=O)NCc3ccc(Nc4ccc(Br)cc4C(F)(F)F)cn3)CC2)cn1 [(173)] | 105%
N#Cc1cc(F)ccc1Nc1ccc(CNC(=O)C2(NC(=O)c3cncnc3)CC2)cc1 [(36)] | 113%

Compound | inhibition at 10 µM
Cn1ccc(C(=O)NC2(C(=O)NCc3ccc(Nc4ccc(Br)cc4C(F)(F)F)cn3)CC2)cc1=O [(177)] | 99%
O=C(N[C@@]1(C(=O)NCc2ccc(Nc3ccccc3C(F)(F)F)cc2)CCOC1)c1ccnc(O)c1 [(86)] | 108%
Nc1cncc(C(=O)N[C@@]2(C(=O)NCc3ncc(Nc4c(F)cccc4C(F)(F)F)cc3F)CCOC2)c1 [(154)] | 101%
COc1cccc(C(=O)N[C@@]2(C(=O)NCc3ccc(Nc4ccccc4C(F)(F)F)cc3)CCOC2)c1 [(100)] | 103%
O=C(N[C@@]1(C(=O)NCc2ccc(Nc3ccccc3C(F)(F)F)cc2)CCOC1)c1ccc(F)nc1 [(107)] | 95%
N#Cc1ccc(F)cc1Nc1ccc(CNC(=O)C2(NC(=O)c3cncnc3)CC2)cc1 [(114)] | 77%
O=C(NC1(C(=O)NCc2ccc(Nc3ccc(F)cc3C(F)(F)F)cc2)CC1)c1ccno1 [(31)] | 112%
O=C1CCC(NC(=O)c2cncnc2)(C(=O)NCc2ccc(Nc3ccccc3C(F)(F)F)cn2)C1 (stereo not drawn) [(193)] | 101%
O=C(Cc1cccnc1)N[C@@]1(C(=O)NCc2ccc(Nc3ccccc3C(F)(F)F)cc2)CCOC1 [(104)] | 54%
CC(NC(=O)C1(NC(=O)c2cncnc2)CC1)c1ccc(Nc2ccccc2C(F)(F)F)cn1 (stereo not drawn) [(40)] | 110%
CN(C)CC(=O)NC1(C(=O)NCc2ccc(Nc3ccccc3C(F)(F)F)cc2)CC1 [(12)] | 78%
COc1ncc(C(=O)N[C@@]2(C(=O)NCc3ccc(Nc4ccccc4C(F)(F)F)cc3)CCOC2)cn1 [(81)] | 113%
O=C(NC1(C(=O)NCc2ncc(Nc3c(F)cccc3C(F)(F)F)cc2F)CC1)c1ccnc(O)c1 [(130)] | 101%
CC(NC(=O)C1(NC(=O)c2cncnc2)CC1)c1ncc(Nc2c(F)cccc2C(F)(F)F)cc1F (stereo not drawn) [(121)] | 113%
O=C(NC1(C(=O)NCc2ccc(Nc3ccc(F)cc3Cl)cn2)CC1)c1cncnc1 [(190)] | 91%
O=C(NC1(C(=O)NCc2ccc(Nc3ccc(F)cc3C(F)(F)F)cn2)CC1)c1cnc2[nH]cnc2c1 [(143)] | 106%
Cc1ncc(C(=O)NC2(C(=O)NCc3ccc(Nc4ccc(Cl)cc4C(F)(F)F)cn3)CC2)cn1 [(147)] | 107%
Cc1ncncc1C(=O)N[C@@]1(C(=O)NCc2ccc(Nc3ccccc3C(F)(F)F)cc2)CCOC1 [(77)] | 96%
O=C1CCC(C(=O)NC2(C(=O)NCc3ccc(Nc4ccccc4C(F)(F)F)cc3)CC2)N1 (stereo not drawn) [(5)] | 88%
O=C1CCC(C(=O)N[C@@]2(C(=O)NCc3ccc(Nc4ccccc4C(F)(F)F)cc3)CCOC2)C1 (stereo partly drawn) [(78)] | 73%
